In patent US20090104633A1, “Kit for Highly Sensitive Detection Assays” (priority 2005, published 2009):

Legend:
insulin = molecular target: T1, insulin (Bos taurus, UniProt P01317); test: Mean degree of derivatization of insulin with active esters (MALDI-TOF-MS); design: species or system bovine; settings: 35 nMoles insulin reacted with 350 nMoles active ester, pH 7.2, 90 min RT; three independent experiments
T1 construct: 2 NH2-termini (chain A and B), 1 lysine side chain; purchased Sigma-Aldrich, Taufkirchen, FRG
Protocol: (§1) Stock solutions of active esters of the labelling compounds summarized in Table 2 (4.2-9.2 mg/ml, 14 mM) as well as labelling compounds (7a), (7b) and (7c) (approximately 15 mM) were prepared freshly in anhydrous dimethylsulfoxide (DMSO) for each labelling experiment. Likewise, a stock solution of insulin (200 μg/ml, 35 μM; bovine insulin, MW 5733,49; Sigma-Aldrich, Taufkirchen, FRG) in 50 mM phosphate buffer, pH 7.2, 0.02 mM ethylenediaminetetraacetic acid (EDTA) (PBS/EDTA) was prepared. For labelling, insulin (35 nMoles, representing 105 nMoles amino functions (2 NH2-termini (chain A and B), 1 lysine side chain)) was reacted with active esters (350 nMoles) in a final volume of 1.25 ml PBS/EDTA, containing no more than 2% (v/v) DMSO in any experiment. The solutions were mixed on an end-to-end mixer for 90 min at RT and the labelling reactions were terminated by addition of glycine (1 mMole) in PBS/EDTA. Mixing was continued for 60 min at RT before the solution was dialyzed against PBS/EDTA (MWCO 2,000). After another dialysis against water, the heterogeneity of the samples and the molecular masses of the products were determined in MALDI-TOF-MS analyses (Bruker-Reflex II instrument; Bruker-Daltonik, Bremen, FRG). The mean labelling degree was calculated as described elsewhere (Olivier V, Meisen I, Meckelein B, Hirst T R, Peter-Katalinic J, Schmidt M A, Frey A (2003). Influence of targeting ligand flexibility on receptor binding of particulate drug delivery systems. Bioconjug Chem. 14:1203-8.) (Table 6).

[1] = Hydrolysis half-lifes of active ester derivatives by 1H-NMR; type: physicochemical; settings: 50 mM deuterated phosphate buffer, pD 7.2, room temperature, 1 mM active ester
Protocol: The hydrolysis half-lifes of active ester derivatives in physiological buffer were determined by ^1H-NMR spectroscopy. For this purpose a 50 mM phosphate buffer in deuterium oxide (D2O, […]) (deutero, Kastellaun, FRG), pD 7.2, was prepared. The phosphate salts were lyophilized thrice from fresh deuterium oxide. Finally, fresh D2O was added and the pD value was verified. […] To initiate the hydrolysis reaction 10 μl of these solutions were added to 490 μl of 50 mM deuterated phosphate-buffer, pD 7.2, spiked with 3-(trimethylsilyl)-1-propanesulfonic acid-D6 sodium salt (TMSPS) (Merck, Darmstadt, FRG) (0.1 mg/ml) as internal reference, resulting in a final concentration of active ester derivatives of 1 mM. The hydrolysis of the active esters was monitored at room temperature by ^1H-NMR spectroscopy with an Avance DRX-600 system (Bruker BioSpin, Rheinstetten, FRG) at 600 MHz. The first ^1H-spectrum was recorded 6-12 min after addition of the phosphate buffer, additional spectra were recorded at about 20, 40, 60, 120, 240, 360 and 1000-1600 min (over night). After the last measurement the pD-value was verified again. The hydrolysis reaction of each active ester derivative was measured in 2-3 independent experiments.
The Bruker software X-WIN-NMR (V 2.5; Bruker BioSpin) was used to acquire and process the data recorded at different time points. For this purpose, signals which were altered in intensity or chemical shift due to deuterolysis and which were not superimposed by signals of other nuclei were integrated and put in relation to the internal standard TMSPS. The concentration of the non-hydrolyzed active ester derivatives was calculated from the change of peak integrals and was plotted versus time.

streptavidin-HRP = molecular target: T2, streptavidin-HRP (Streptomyces avidinii, UniProt P22629); test: Detection of active ester-labelled insulin on PVDF filterplates (HRP/TMB); type: binding; settings: for Detection limit of labelled protein: insulin conjugate on PVDF, mean ± SEM; for Detection limit of label: insulin conjugate, converted from pg protein with labelling degree (Table 6)
T2 construct: purchased Vector Labs, Burlingame, Calif., USA
Protocol: as §1
The concentrations of the labelled polypeptides were determined by standard assays and serial dilutions of the solutions were prepared in PBS/EDTA. Equal amounts of the diluted solutions (1,000-0.12 ng conjugate/well, each in 50 μl PBS/EDTA) were applied onto 96-well polystyrene filterplates equipped with polyvinylidene fluoride (PVDF) membrane bottoms (Corning, Corning, N.Y., USA), which had been pre-activated with 70% (v/v) ethanol and washed with phosphate buffer. The plates were incubated for 30 min at room temperature before the solutions were sucked through the membranes with a MultiScreen vacuum manifold (Millipore, Schwalbach, FRG). […] Nonspecific binding sites were blocked with 200 μl/well 2% (w/v) caseinate in D-PBS (Caseinate-PBS) for 30 min at RT and the solutions were removed. […] After the plates were washed another 6× with PBST with the vacuum manifold and 6× with D-PBS with the plate washer, color was developed at room temperature in the dark with 75 μl/well of a highly sensitive tetramethylbenzidine-based substrate reagent (1 mM 3,3′,5,5′-tetramethylbenzidine, 3 mM H2O2 in 200 mM potassium citrate, pH 4.0; (Frey A, Meckelein B, Externest D, Schmidt M A (2000). A stable and highly sensitive 3,3′,5,5′-tetramethylbenzidine-based substrate reagent for enzyme-linked immunosorbent assays. J Immunol Methods. 233:47-56.)). The reaction was terminated after 30 min with 125 μl/well 1 M sulfuric acid.

[2] = molecular target: T3, Streptavidin AlexaFluor680 (Streptomyces avidinii, UniProt P22629); test: Dot blot detection of active ester-labelled ovalbumin on nitrocellulose; type: binding; design: purchased Invitrogen; settings: ovalbumin conjugate, mean ± SEM
Protocol: Stock solutions of 65-100 mg/ml (120-330 mM) active ester of the labelling compounds (Table 2) were prepared freshly in anhydrous dimethylsulfoxide (DMSO) for each labelling experiment. […] For labelling 100 nMoles ovalbumin (representing 2 μMoles amino functions) were reacted with 1.5 μMoles of active ester in a final volume of 300 μl 100 mM sodium tetraborate, pH 8.2, containing no more than 5% (v/v) DMSO in any experiment. The solutions were mixed on an end-to-end mixer for 180 min at RT and the labelling reactions were terminated by addition of 1.5 mmoles glycine in sodium tetraborate buffer. Mixing was continued overnight at 4° C. before the solutions were dialyzed against sodium tetraborate buffer. The concentrations of the labelled protein were determined by standard assays and serial dilutions of the stock solutions were prepared.

[3] = molecular target: T3, Streptavidin AlexaFluor680; test: Dot blot detection of hydrazide-labelled glycoprotein (porcine mucin) on nitrocellulose; settings: periodate-oxidized mucin, mean ± SEM
Protocol: All subsequent treatments of the membranes were carried out in tight fitting trays. For oxidation or the carbohydrate moieties of the glycoprotein the membranes were incubated for 20 min at RT in 3 ml (0.21 ml/cm^2 membrane) 10 mM sodium m-periodate (Sigma-Aldrich, Taufkirchen, FRG) in 100 mM sodium acetate buffer (pH 5). They were washed another 3× in D-PBS, incubated each for 60 min at RT with 3 ml (0.21 ml/cm^2 membrane) of 2.5 μM labelling-hydrazide (Table 4) in 100 mM sodium acetate buffer (pH 5), washed again 3× in D-PBS and blocked with 1% (w/v) Casein (Hammarsten grade, BDH, Poole, UK) in D-PBS (Casein-PBS) for 30 min at RT. Blocked membranes were incubated for 90 min at RT with 4 ml (0.28 ml/cm^2 membrane) diluted monoclonal antibodies against 2,4-dichlorophenoxyacetic acid or monoclonal antibodies against DIG or with AlexaFluor680-labelled streptavidin (for working concentrations see Table 3) in Casein-PBS and washed 3× with D-PBS. […] After intense washing with D-PBS fluorescence was read out on a fluorescence imager (Odyssey Infrared Imager, LI-COR Biosciences, Lincoln, Nebr., USA) and quantitated with an appropriate image analysis software (Odyssey Software v.1.2). Statistical analysis of the data was carried out with the GraphPad Prism Suite (v.4.0.0, GraphPad Software, San Diego, Calif., USA).

T1 sequence (P01317 25-54 limits assumed): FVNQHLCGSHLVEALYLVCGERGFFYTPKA
T1 sequence (P01317 85-105 limits assumed): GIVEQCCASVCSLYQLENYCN
T3 sequence (P22629 25-183): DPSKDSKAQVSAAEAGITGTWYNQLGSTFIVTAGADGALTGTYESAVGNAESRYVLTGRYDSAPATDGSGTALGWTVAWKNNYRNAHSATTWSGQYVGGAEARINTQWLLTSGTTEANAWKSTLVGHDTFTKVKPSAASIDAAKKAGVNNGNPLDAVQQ
T2 sequence (P22629 25-183): as above

Compound | Mean labelling degree (insulin) | Hydrolysis half-life [1] | Detection limit of labelled protein (streptavidin-HRP) | Detection limit of label (streptavidin-HRP) | Detection limit of proteins after labelling with active ester derivatives [2] [pg] | Detection limit of proteins after labelling with hydrazide derivatives [3]
O=C(COc1ccc(Cl)cc1Cl)NCCCCCC(=O)ON1C(=O)CC(S(=O)(=O)[O-])C1=O.[Na+] (centres unmarked) [(3b), 6-(2-(2,4-dichlorophenoxy)acetylamino)-hexanoic acid-N-hydroxysulfosuccinimidyl-ester-sodium Salt] | 1.61 Mole label: Mole insulin | 231^(*^) min | – | – | – | –
O=C(CCCCCNC(=O)CCCC[C@@H]1SC[C@@H]2NC(=O)N[C@@H]21)NCCCCCC(=O)ON1C(=O)CCC1=O [NHS-SLC-biotin, SLC-NHS-(+)-Biotin] | 0.08 Mole label: Mole insulin | – | 1,277,778.0 ± 237,333.4 pg | 17,829.0 ± 3,311.5 fMole | 39063.0 ± 5508.0 | –
SLC-(+)-Biotinoylhydrazide [Biotin-C11 hydrazide] | – | – | – | – | – | 114.6 ± 10.4^ pg
O=C(COc1ccc(Cl)cc1Cl)ON1C(=O)CCC1=O [(1b)] | 0.52 Mole label: Mole insulin | 25 min | – | – | – | –
O=C(CCCC[C@@H]1SC[C@@H]2NC(=O)N[C@@H]21)NCCCCCC(=O)ON1C(=O)CC(S(=O)(=O)[O-])C1=O.[Na+] (stereo partly drawn) [Sulfo-NHS-LC-biotin, Sulfo-LC-(+)-Biotin] | 1.72 Mole label: Mole insulin | 101 min | 33,854.2 ± 6,107.3 pg | 10,156.0 ± 1,832.1 fMole | 248.0 ± 66.6 | –
NNC(=O)CCCCCNC(=O)CCCC[C@@H]1SC[C@@H]2NC(=O)N[C@@H]21 [Biotin-C6 hydrazide, LC-(+)-Biotinoylhydrazide] | – | – | – | – | – | 49.1 ± 6.3^ pg
O=C1N[C@H]2[C@H](CS[C@H]2CCCCC(=O)ON2C(=O)CC(S(=O)(=O)[O-])C2=O)N1.[Na+] (stereo partly drawn) [Sulfo-NHS-biotin, Sulfo-Succinimidyl-(+)-biotin] | 1.79 Mole label: Mole insulin | 62 min | 62,500.0 ± 15,343.4 pg | 19,512.6 ± 4,790.2 fMole | 246.5 ± 67.2 | –
O=C(COc1ccc(Cl)cc1Cl)NCCCCCCCCCCC(=O)ON1C(=O)CC(S(=O)(=O)[O-])C1=O.[Na+] (centres unmarked) [(3d), 11-(2-(2,4-dichlorophenoxy)acetylamino)-undecanoic acid-N-hydroxysulfosuccinimidyl-ester-sodium Salt] | 0.38 Mole label: Mole insulin | – | – | – | – | –
C[C@]12CC[C@H](OCC(=O)NCCCCCC(=O)ON3C(=O)CCC3=O)C[C@H]1CC[C@@H]1[C@@H]2C[C@@H](O)[C@]2(C)[C@@H](C3=CC(=O)OC3)CC[C@]12O [DIG-C6-NHS, Digoxigenin-3-O-methylcarbonyl-ε-aminocaproyl-N-hydroxysuccinimide] | 1.50 Mole label: Mole insulin | 248^(*^) min | – | – | – | –
